Results from patent US20020055528A1, “Artemisinin analogs having antimalarial, antiproliferative, and antitumor activities and chemoselective methods of making the same” (priority 1999, published 2002).

Columns and labels:
Assay type in all cases: cell-based
COLO 205 = test: NCI 60 cell line screen (SRB), Colon Cancer
BT-549 = test: NCI 60 cell line screen (SRB), Breast Cancer
RPMI-8226 = test: NCI 60 cell line screen (SRB), Leukemia
MALME-3M = test: NCI 60 cell line screen (SRB), Melanoma
SK-MEL-5 = test: NCI 60 cell line screen (SRB), Melanoma
HL-60(TB) = test: NCI 60 cell line screen (SRB), Leukemia
RXF 393 = test: NCI 60 cell line screen (SRB), Renal Cancer
OVCAR-4 = test: NCI 60 cell line screen (SRB), Ovarian Cancer
EKVX = test: NCI 60 cell line screen (SRB), Non-Small Cell Lung Cancer
OVCAR-8 = test: NCI 60 cell line screen (SRB), Ovarian Cancer
IGROVI = test: NCI 60 cell line screen (SRB), Ovarian Cancer
ACHN = test: NCI 60 cell line screen (SRB), Renal Cancer
KM12 = test: NCI 60 cell line screen (SRB), Colon Cancer
HCC-2998 = test: NCI 60 cell line screen (SRB), Colon Cancer
786-0 = test: NCI 60 cell line screen (SRB), Renal Cancer
PC-3 = test: NCI 60 cell line screen (SRB), Prostate Cancer
UACC-257 = test: NCI 60 cell line screen (SRB), Melanoma
U251 = test: NCI 60 cell line screen (SRB), CNS Cancer
HOP-62 = test: NCI 60 cell line screen (SRB), Non-Small Cell Lung Cancer
NCI-H522 = test: as above
MDA-N = test: NCI 60 cell line screen (SRB), Breast Cancer
DU-145 = test: NCI 60 cell line screen (SRB), Prostate Cancer
HCT-116 = test: NCI 60 cell line screen (SRB), Colon Cancer
SNB-75 = test: NCI 60 cell line screen (SRB), CNS Cancer
LOX IMVI = test: NCI 60 cell line screen (SRB), Melanoma
CAKI-1 = test: NCI 60 cell line screen (SRB), Renal Cancer
HCT-15 = test: NCI 60 cell line screen (SRB), Colon Cancer
[1] = tested on: MB231/ATCC (second line of the wrapped label, with values of its own); test: NCI 60 cell line screen (SRB), Breast Cancer

Question: How did the Log10TGI (COLO 205; PG=0) turn out when `CC1=C(C=Cc2cccc(C=CC3=C(C)C4CCC(C)C5CCC6(C)OOC45C(O3)O6)c2)OC2OC3(C)CCC4C(C)CCC1C24OO3` (stereo not shown) [VII-f] was run?
Answer: −5.93 log10M

Question: And the Log10GI50 (COLO 205; PG=+50)?
Answer: −6.61 log10M

Question: And the Log10GI50 (COLO 205; Table IV (LC50, PG=−50))?
Answer: −5.30 log10M

Question: And the Log10GI50 (BT-549; PG=+50)?
Answer: −6.50 log10M

Question: And the Log10GI50 (BT-549; Table IV (LC50, PG=−50))?
Answer: >−4.00 log10M

Question: And the Log10TGI (RPMI-8226; PG=0)?
Answer: −6.21 log10M

Question: What about the Log10GI50 (RPMI-8226; PG=+50) of the same molecule?
Answer: −6.21 log10M

Question: What about the Log10GI50 (RPMI-8226; Table IV (LC50, PG=−50)) of the same molecule?
Answer: >−4.00 log10M

Question: What about the Log10TGI (MALME-3M; PG=0) of the same molecule?
Answer: −4.82 log10M

Question: And the Log10GI50 (MALME-3M; PG=+50)?
Answer: −5.65 log10M

Question: And the Log10GI50 (MALME-3M; Table IV (LC50, PG=−50))?
Answer: >−4.00 log10M

Question: What about the Log10TGI (SK-MEL-5; PG=0) of the same molecule?
Answer: −4.93 log10M

Question: And the “Log10 GI50 or LC50” value (SK-MEL-5; PG=+50)?
Answer: −5.80 log10M

Question: What about the “Log10 GI50 or LC50” value (SK-MEL-5; Table IV (LC50, PG=−50)) of the same molecule?
Answer: >−4.00 log10M

Question: And the Log10TGI (HL-60(TB); PG=0)?
Answer: −6.71 log10M

Question: And the Log10GI50 (HL-60(TB); PG=+50)?
Answer: −6.71 log10M

Question: What about the Log10GI50 (HL-60(TB); Table IV (LC50, PG=−50)) of the same molecule?
Answer: >−4.00 log10M

Question: What about the Log10TGI (RXF 393; PG=0) of the same molecule?
Answer: >−4.00 log10M

Question: And the Log10GI50 (RXF 393; PG=+50)?
Answer: −5.91 log10M

Question: What about the Log10GI50 (RXF 393; Table IV (LC50, PG=−50)) of the same molecule?
Answer: >−4.00 log10M

Question: And the Log10GI50 (OVCAR-4; OVCAR-4, PG=+50)?
Answer: −5.93 log10M

Question: And the Log10GI50 (OVCAR-4; Table IV (LC50, PG=−50), OVCAR−4)?
Answer: >−4.00 log10M

Question: And the Log10TGI (EKVX; PG=0)?
Answer: −4.58 log10M

Question: What about the Log10GI50 (EKVX; PG=+50) of the same molecule?
Answer: −6.21 log10M

Question: What about the Log10GI50 (EKVX; Table IV (LC50, PG=−50)) of the same molecule?
Answer: >−4.00 log10M

Question: What about the Log10TGI (OVCAR-8; PG=0) of the same molecule?
Answer: −4.21 log10M

Question: What about the Log10GI50 (OVCAR-8; PG=+50) of the same molecule?
Answer: −5.57 log10M

Question: And the Log10GI50 (OVCAR-8; Table IV (LC50, PG=−50))?
Answer: >−4.00 log10M

Question: And the Log10TGI (IGROVI; PG=0)?
Answer: >−4.00 log10M

Question: What about the Log10GI50 (IGROVI; PG=+50) of the same molecule?
Answer: −4.55 log10M

Question: And the Log10GI50 (IGROVI; Table IV (LC50, PG=−50))?
Answer: >−4.00 log10M

Question: What about the Log10TGI (ACHN; PG=0) of the same molecule?
Answer: >−4.00 log10M

Question: What about the “Log10 GI50 or LC50 (see conditions)” value (ACHN; PG=+50) of the same molecule?
Answer: −5.71 log10M

Question: And the “Log10 GI50 or LC50 (see conditions)” value (ACHN; Table IV (LC50, PG=−50))?
Answer: >−4.00 log10M

Question: And the Log10TGI (KM12; PG=0)?
Answer: >−4.00 log10M

Question: What about the Log10GI50 (KM12; PG=+50) of the same molecule?
Answer: −6.23 log10M

Question: And the Log10GI50 (KM12; Table IV (LC50, PG=−50))?
Answer: >−4.00 log10M

Question: What about the Log10TGI (HCC-2998; PG=0) of the same molecule?
Answer: >−4.00 log10M

Question: And the Log10GI50 (HCC-2998; PG=+50)?
Answer: −5.59 log10M

Question: And the Log10TGI (786-0; PG=0)?
Answer: >−4.00 log10M

Question: And the Log10GI50 (786-0; PG=+50)?
Answer: −5.40 log10M

Question: What about the Log10GI50 (786-0; Table IV (LC50, PG=−50)) of the same molecule?
Answer: >−4.00 log10M

Question: What about the Log10TGI (PC-3; PG=0) of the same molecule?
Answer: >−4.00 log10M

Question: And the “Log10 GI50 (PG=+50) or LC50 (PG=−50)” value (PC-3; PG=+50)?
Answer: −6.30 log10M

Question: And the “Log10 GI50 (PG=+50) or LC50 (PG=−50)” value (PC-3; Table IV (LC50, PG=−50))?
Answer: >−4.00 log10M

Question: And the Log10TGI (UACC-257; PG=0)?
Answer: >−4.00 log10M

Question: And the “Log10 GI50 (PG=+50) or Log10 LC50 (PG=−50)” value (UACC-257; PG=+50)?
Answer: −6.02 log10M

Question: And the “Log10 GI50 (PG=+50) or Log10 LC50 (PG=−50)” value (UACC-257; Table IV (LC50, PG=−50))?
Answer: >−4.00 log10M

Question: What about the Log10TGI (U251; PG=0) of the same molecule?
Answer: >−4.00 log10M

Question: What about the Log10GI50 (U251; PG=+50) of the same molecule?
Answer: −6.03 log10M

Question: What about the Log10GI50 (U251; Table IV (LC50, PG=−50)) of the same molecule?
Answer: >−4.00 log10M

Question: And the Log10TGI (HOP-62; PG=0)?
Answer: >−4.00 log10M

Question: What about the Log10GI50 (HOP-62; PG=+50) of the same molecule?
Answer: −5.77 log10M

Question: And the Log10GI50 (HOP-62; Table IV (LC50, PG=−50))?
Answer: >−4.00 log10M

Question: What about the Log10TGI (NCI-H522; PG=0) of the same molecule?
Answer: >−4.00 log10M

Question: And the Log10GI50 (NCI-H522; PG=+50)?
Answer: −6.07 log10M

Question: What about the Log10GI50 (NCI-H522; Table IV (LC50, PG=−50)) of the same molecule?
Answer: >−4.00 log10M

Question: What about the Log10TGI (MDA-N; PG=0) of the same molecule?
Answer: −4.18 log10M

Question: What about the Log10GI50 (MDA-N; PG=+50) of the same molecule?
Answer: −5.74 log10M

Question: And the Log10GI50 (MDA-N; Table IV (LC50, PG=−50))?
Answer: >−4.00 log10M

Question: And the Log10TGI (DU-145; PG=0)?
Answer: >−4.00 log10M

Question: And the Log10GI50 (DU-145; PG=+50)?
Answer: −5.16 log10M

Question: What about the Log10GI50 (DU-145; Table IV (LC50, PG=−50)) of the same molecule?
Answer: >−4.00 log10M

Question: And the Log10TGI (HCT-116; PG=0)?
Answer: >−4.00 log10M

Question: What about the “Log10 GI50 (PG=+50) or Log10 LC50 (PG=−50), as given per row condition” value (HCT-116; PG=+50) of the same molecule?
Answer: −6.12 log10M

Question: And the “Log10 GI50 (PG=+50) or Log10 LC50 (PG=−50), as given per row condition” value (HCT-116; Table IV (LC50, PG=−50))?
Answer: >−4.00 log10M

Question: What about the “Log10 GI50 (PG=+50) or LC50 (PG=−50)” value (SNB-75; PG=+50) of the same molecule?
Answer: −5.84 log10M

Question: What about the “Log10 GI50 (PG=+50) or LC50 (PG=−50)” value (SNB-75; Table IV (LC50, PG=−50)) of the same molecule?
Answer: >−4.00 log10M

Question: And the Log10TGI (LOX IMVI; PG=0)?
Answer: >−4.00 log10M

Question: What about the Log10GI50 (LOX IMVI; PG=+50) of the same molecule?
Answer: −5.79 log10M

Question: What about the Log10GI50 (LOX IMVI; Table IV (LC50, PG=−50)) of the same molecule?
Answer: >−4.00 log10M

Question: And the Log10TGI (CAKI-1; PG=0)?
Answer: >−4.00 log10M

Question: What about the Log10GI50 (CAKI-1; PG=+50) of the same molecule?
Answer: −5.17 log10M

Question: And the Log10GI50 (CAKI-1; Table IV (LC50, PG=−50))?
Answer: >−4.00 log10M

Question: And the Log10TGI (HCT-15; PG=0)?
Answer: −4.82 log10M

Question: What about the “log10 GI50 (PG=+50) or LC50 (PG=−50), per row condition” value (HCT-15; PG=+50) of the same molecule?
Answer: −6.13 log10M

Question: And the “log10 GI50 (PG=+50) or LC50 (PG=−50), per row condition” value (HCT-15; Table IV (LC50, PG=−50))?
Answer: >−4.00 log10M

Question: And the Log10GI50 ([1]; PG=+50)?
Answer: −6.13 log10M

Question: And the Log10GI50 ([1]; Table IV (LC50, PG=−50))?
Answer: >−4.00 log10M
